Reference: article PMC12150326 (The Journal of Organic Chemistry, 2025)

How the values were obtained:
U251 = format: cell-based, human
Experimental: (§1) (aR)-6, (aS)-6, (aS)-iso -6, and (aR)-iso -6 were submitted to the 60 Cell Screen panel and evaluated at 5 doses (100 μM, 10 μM, 1 μM, 0.1 μM, and 0.01 μM). […] The complete report from this submission is available at the publisher’s Web site as a separate Supporting Information file. For COMPARE analysis, TGI levels of response for (aR)-DM-MTC (6) and (aS)-iso-DM-MTC were compared to those of several established tubulin inhibitors previously tested in the NCI-60 screen.

HL-60(TB) = format: cell-based, human
Experimental: as §1

SK-MEL-2 = format: cell-based, human
Experimental: as §1

SK-MEL-5 = format: cell-based, human
Experimental: as §1

UACC-62 = format: cell-based, human
Experimental: as §1

PC-3 = format: cell-based, human
Experimental: as §1

M14 [1] = format: cell-based, human
Experimental: as §1

MALME-3M = format: cell-based, human
Experimental: as §1

MDA-MB-231/ATCC = format: cell-based, human
Experimental: as §1

NCI 60 cell lines = format: cell-based, human
Experimental: as §1

IGROV1 = format: cell-based, human
Experimental: as §1

RXF 393 = format: cell-based, human
Experimental: as §1

MOLT-4 = format: cell-based, human
Experimental: as §1

HOP-62 = format: cell-based, human
Experimental: as §1

SK-OV-3 = format: cell-based, human
Experimental: as §1

A498 = format: cell-based, human
Experimental: as §1

OVCAR-5 = format: cell-based, human
Experimental: as §1

SK-MEL-28 = format: cell-based, human
Experimental: as §1

TK-10 = format: cell-based, human
Experimental: as §1

A549 = assay: Cell-growth inhibition (CellTiter); format: cell-based, human; conditions: A549, 3 days; read-out: Cell Growth Inhibition GI50 ± SE
Experimental: (§2) Inhibition of cell growth was determined by using standard procedures. Cell lines were obtained from the NCI anticancer drug screen and maintained in DMEM medium supplemented with 10% fetal bovine serum. Growing cells were exposed to serial dilutions of each compound for 3 days. Cell growth was determined with CellTiter Assay Reagent (Promega), and growth parameters, including inhibition of growth, were measured by using the methods specified by the manufacturer.

PC3 = assay: Cell-growth inhibition (CellTiter); format: cell-based, human; conditions: PC3, 3 days; read-out: Cell Growth Inhibition GI50 ± SE
Experimental: as §2

M14 [2] = assay: Cell-growth inhibition (CellTiter); format: cell-based, human; conditions: M14, 3 days; read-out: Cell Growth Inhibition GI50 ± SE
Experimental: as §2

bovine brain tubulin = assay: Tubulin polymerization inhibition; format: biochemical; conditions: 10 μM tubulin
Experimental: Inhibition of tubulin polymerization was determined as described previously. In brief, 10 μM bovine brain tubulin (PurSolutions, LLC (puresoluble.com)) was incubated under conditions strongly promoting polymerization of tubulin (1 M NaGlutamate, 0.1 M Mes (Morpholinoethanesulfonic acid), 1 mM MgCl2, 0.5 mM GTP, pH 6.9), in the absence or presence of 3.3 or 33 μM test compound, incubated for 30 min at 37 °C, then centrifuged at 100,000g for 8 min, and the top 3/4 of the supernatant removed. Protein concentration was measured, and polymerization was determined as pelletable protein lost from the supernatant.

## COc1cc(C)c(-c2ccc(=O)c(OC)cc2C)c(OC)c1OC (single isomer, unassigned) [(aR)-iso-6]
U251
  Log10GI50: > -4.00 Molar
  Log10LC50: > -4.00 Molar
  Log10TGI: > -4.00 Molar
HL-60(TB)
  Log10GI50: > -4.00 Molar
  Log10LC50: > -4.00 Molar
  Log10TGI: > -4.00 Molar
SK-MEL-2
  Log10GI50: > -4.00 Molar
  Log10LC50: > -4.00 Molar
  Log10TGI: > -4.00 Molar
SK-MEL-5
  Log10GI50: > -4.00 Molar
  Log10LC50: > -4.00 Molar
  Log10TGI: > -4.00 Molar
UACC-62
  Log10GI50: > -4.00 Molar
  Log10LC50: > -4.00 Molar
  Log10TGI: > -4.00 Molar
PC-3
  Log10GI50: > -4.00 Molar
  Log10LC50: > -4.00 Molar
  Log10TGI: > -4.00 Molar
M14 [1]
  Log10GI50: > -4.00 Molar
  Log10LC50: > -4.00 Molar
  Log10TGI: > -4.00 Molar
MALME-3M
  Log10GI50: > -4.00 Molar
  Log10LC50: > -4.00 Molar
  Log10TGI: > -4.00 Molar
MDA-MB-231/ATCC
  Log10GI50: > -4.00 Molar
  Log10LC50: > -4.00 Molar
  Log10TGI: > -4.00 Molar
NCI 60 cell lines; 100 μM
  cytotoxicity at the highest concentration tested: not cytotoxic
NCI 60 cell lines; NCI-60 cell line selectivity
  Log10 Range at TGI: 0
NCI 60 cell lines; NCI-60 mean
  GI50: > 100 µM
NCI 60 cell lines; NCI-60 mean total growth inhibition
  Mean TGI: > 100 µM
NCI 60 cell lines; mean graph
  Delta Log10LC50: 0
  Delta Log10TGI: 0
NCI 60 cell lines; mean graph midpoint
  _MID Log10GI50: -4.01 Molar
  _MID Log10LC50: -4.0 Molar
  _MID Log10TGI: -4.0 Molar
IGROV1
  Log10GI50: > -4.00 Molar
  Log10LC50: > -4.00 Molar
  Log10TGI: > -4.00 Molar
RXF 393
  Log10GI50: > -4.00 Molar
  Log10LC50: > -4.00 Molar
  Log10TGI: > -4.00 Molar
MOLT-4
  Log10GI50: > -4.00 Molar
  Log10LC50: > -4.00 Molar
  Log10TGI: > -4.00 Molar
HOP-62
  Log10GI50: > -4.00 Molar
  Log10LC50: > -4.00 Molar
  Log10TGI: > -4.00 Molar
SK-OV-3
  Log10GI50: > -4.00 Molar
  Log10LC50: > -4.00 Molar
  Log10TGI: > -4.00 Molar
A498
  Log10GI50: > -4.00 Molar
  Log10LC50: > -4.00 Molar
  Log10TGI: > -4.00 Molar
OVCAR-5
  Log10GI50: > -4.00 Molar
  Log10LC50: > -4.00 Molar
  Log10TGI: > -4.00 Molar
SK-MEL-28
  Log10GI50: > -4.00 Molar
  Log10LC50: > -4.00 Molar
  Log10TGI: > -4.00 Molar
TK-10
  Log10GI50: > -4.00 Molar
  Log10LC50: > -4.00 Molar
  Log10TGI: > -4.00 Molar
A549
  GI50: > 20 µM
PC3
  GI50: > 20 µM
M14 [2]
  GI50: > 20 µM
Bovine brain tubulin; 3.3 μM compound
  Polymerization Inhibition (%) 3.3 μM: 0%
Bovine brain tubulin; 33 μM compound
  Polymerization Inhibition (%) 33 μM: 0%
